In PMC9696794, “Synthesis and Antimicrobial Activity of Short Analogues of the Marine Antimicrobial Peptide Turgencin A: Effects of SAR Optimizations, Cys-Cys Cyclization and Lipopeptide Modifications” (International Journal of Molecular Sciences, 2022):
≈ marks a conversion by molar mass, not a printed value. Where a SMILES comes first, the peptide text is derived from it. Bridges are numbered along the chain shown (N, C = ends). The star is where a group is joined. Lauroyl = CCCCCCCCCCCC(=O)*; Octanoyl = CCCCCCCC(=O)*

Experiments:
[1] = tested on: S. epidermidis RP62A (Se, ATCC 35984); test: microbe, parasite or virus in culture; type: cell-based, Staphylococcus epidermidis; conditions: ATCC 35984, 24 h
In short: (§1)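 Cultures grown in Mueller–Hinton broth were adjusted by OD600 to 2.5–3 × 10^4 CFU/mL and mixed with two-fold peptide dilutions from 256 to 1 µg/mL. Plates were incubated at 35 °C with OD595 monitored every hour for 24 h.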

[2] = tested on: Gram-positive bacterial strains; conditions: Table S3; MIC >256 set to 256
In short: as §1

[3] = tested on: C. glutamicum (Cg, ATCC 13032); test: microbe, parasite or virus in culture; type: cell-based, Corynebacterium glutamicum; conditions: ATCC 13032, 24 h
In short: as §1

[4] = tested on: fungi (A. pullulans, C. albicans, Rhodotorula sp.); test: Antifungal MIC assay, all fungi together (range or geometric mean); type: cell-based; conditions: Table S3; MIC >128 set to 128
In short: (§2)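 Overnight cultures in potato dextrose broth with 2% glucose at 25–30 °C were diluted to approx. 4 × 10^5 spores/mL and mixed 1:1 with two-fold peptide dilutions plated at 256 to 1 µg/mL. After 48 h at room temperature, OD600 was read. MIC was the lowest concentration giving OD below 10% of the growth control, in triplicate.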

[5] = tested on: Gram-negative bacterial strains (E. coli and P. aeruginosa); test: Antibacterial MIC assay, Gram-negative strains together (range or geometric mean); type: cell-based; conditions: Table S3; MIC >256 set to 256
In short: as §1

[6] = tested on: P. aeruginosa (Pa, ATCC 27853); test: microbe, parasite or virus in culture; type: cell-based, Pseudomonas aeruginosa; conditions: ATCC 27853, 24 h
In short: as §1

[7] = tested on: Rhodotorula sp. (Rh); test: microbe, parasite or virus in culture; type: cell-based; conditions: 48 h
In short: as §2

[8] = tested on: C. albicans (Ca, ATCC 10231); test: microbe, parasite or virus in culture; type: cell-based, Candida albicans; conditions: ATCC 10231, 48 h
In short: as §2

[9] = tested on: B. subtilis (Bs, ATCC 23857); test: microbe, parasite or virus in culture; type: cell-based, Bacillus subtilis; conditions: ATCC 23857, 24 h
In short: as §1

[10] = tested on: human red blood cells (RBC); test: Haemolytic activity assay; type: cell-based; conditions: for Selectivity index (SI) G+: EC50/GM of Gram-positive strains; for RBC Tox. (EC50), haemolytic activity: human RBC, 1 h, 37 °C, concentration giving 50% haemolysis
In short: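 Washed human erythrocytes (1% hematocrit final) incubated 1 h at 37 °C with agitation with lipopeptides at 500–3.9 μM in PBS (≤1% DMSO), duplicates. Haemoglobin release read at 545 nm relative to 0.1% Triton X-100; EC50 is 50% haemolysis, averaged from three experiments.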

[11] = tested on: E. coli NR698 (outer membrane permeable mutant, imp4213); test: microbe, parasite or virus in culture; conditions: MC4100 NR698 imp4213, deficient outer membrane
Method: (§3) All cyclic and linear peptides were screened for antibacterial activity against four Gram-positive strains: B. subtilis (Bs, ATCC 23857), C. glutamicum (Cg, ATCC 13032), S. aureus (Sa, ATCC 9144) and S. epidermidis RP62A (Se, ATCC 35984), and two Gram-negative strains: E. coli (Ec, ATCC 25922) and P. aeruginosa (Pa, ATCC 27853). The activity was assessed using a broth microdilution assay according to a modified CLSI-based method. Briefly, overnight bacterial cultures were grown in Mueller–Hinton (MH) broth medium (Difco Laboratories, Detroit, MI, USA) for 2 h at room temperature. The optical density (OD600) was measured, and the bacterial suspensions were adjusted to 2.5–3 × 10^4 CFU/mL in MH medium. The bacterial suspension (50 µL) was distributed in 96-well plates (Nunc, Roskilde, Denmark) preloaded with two-fold dilution series (256 to 1 µg/mL) of peptide solutions (50 µL), giving a final well volume of 100 µL. The microplates were incubated in an EnVision 2103 microplate reader (PerkinElmer, Llantrisant, UK) at 35 °C, with OD595 recorded every hour for 24 h. MIC was defined as the lowest concentration of peptides showing an optical density less than 10% of the negative (growth) control, consisting of bacterial suspension and water. Polymyxin B sulfate (Sigma-Aldrich, St. Louis, MO, USA) and chlorhexidine acetate (CHX, Fresenius Kabi, Halden, Norway), both with concentrations ranging from 12.5 to 0.09 μg/mL, served as positive (growth inhibition) controls. All peptides were tested in triplicate.
(§4) MIC values were determined for all cyclic peptides against two E. coli strains: wild type (WT) MC4100 and the hyperpermeable variant NR698, having a deficient outer membrane. The NR698 strain, containing lptD4213/imp4213 mutation, was kindly provided by M. Grabowicz (Emory University School of Medicine, Rollins Research Center, Atlanta, GA, USA). The assay was performed in the same way as previously described for the antibacterial MIC assay.

[12] = tested on: E. coli MC4100 (wild type, WT); test: microbe, parasite or virus in culture; conditions: wild type
Method: as §3, §4

[13] = tested on: A. pullulans (Ap); test: microbe, parasite or virus in culture; type: cell-based, Aurobasidium pollulans; conditions: 48 h
In short: as §2

[14] = tested on: S. aureus (Sa, ATCC 9144); test: microbe, parasite or virus in culture; type: cell-based, Staphylococcus aureus; conditions: ATCC 9144, 24 h
In short: as §1

[15] = tested on: all bacterial strains; test: Antibacterial MIC assay, all bacterial strains together (range or geometric mean); type: cell-based; conditions: for GM (geometric mean of the MIC values against all bacterial strains): Table 1, six bacterial strains; for GM of MIC Tot. bact.: Table S3, all bacterial test strains, MIC >256 set to 256
In short: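 Broth microdilution in Mueller–Hinton broth against B. subtilis, C. glutamicum, S. aureus, S. epidermidis RP62A, E. coli and P. aeruginosa; inoculum 2.5–3 × 10^4 CFU/mL, 35 °C, OD595 read hourly for 24 h. MIC: lowest peptide concentration giving OD below 10% of growth control; geometric mean across strains, triplicate.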

[16] = tested on: E. coli (Ec, ATCC 25922); test: microbe, parasite or virus in culture; type: cell-based, Escherichia coli; conditions: ATCC 25922, 24 h
In short: as §1

[17] = Table S3, highest tested concentration used where EC50 above it

SMILES | Antimicrobial Activity (MIC) Gram + Se [1] [µg/mL] | GM of MIC G+ [2] [µg/mL] | Antimicrobial Activity (MIC) Gram + Cg [3] [µg/mL] | GM of MIC Fungi [4] [µg/mL] | GM of MIC G- [5] [µg/mL] | Antimicrobial Activity (MIC) Gram − Pa [6] [µg/mL] | Antimicrobial Activity (MIC) Fungi Rh [7] [µg/mL] | Antimicrobial Activity (MIC) Fungi Ca [8] [µg/mL] | Antimicrobial Activity (MIC) Gram + Bs [9] [µg/mL] | Selectivity index (SI) G+ [10, 17] | RBC Tox. (EC50), haemolytic activity [10] [µg/mL] | MIC E. coli NR698 (mutant) [11] [µg/mL] | MIC E. coli MC4100 (WT) [12] [µg/mL] | Antimicrobial Activity (MIC) Fungi Ap [13] [µg/mL] | Antimicrobial Activity (MIC) Gram + Sa [14] [µg/mL] | GM (geometric mean of the MIC values against all bacterial strains) [15] [µg/mL] | GM of MIC Tot. bact. [15] [µg/mL] | Antimicrobial Activity (MIC) Gram − Ec [16] [µg/mL] | further results
CCCCCCCC(=O)N[C@H]1CSSC[C@@H](C(=O)N[C@@H](CCCCN)C(=O)N[C@@H](CC(C)C)C(N)=O)NC(=O)[C@H](CCCCN)NC(=O)[C@H](Cc2c[nH]c3ccccc23)NC(=O)CNC(=O)CNC(=O)[C@@H]2CCCN2C(=O)[C@H](CCCCN)NC(=O)[C@H](CCCCN)NC(=O)CNC1=O [Peptide C8-cTurg-1, C8 -(CGKKPGGWKC)KL-NH2] (Octanoyl-CGKKPGGWKCKL-NH2; disulfide 1-10) | 32 | 16 | 4 | 32 | 64 | 128 | 8 | 64 | 4 | > 59 | >942 | 8 (≈ 5.6 µM) | 16 (≈ 11.2 µM) | 64 | 128 | 25 | 25 | 32 | Selectivity index (SI) G- ([10]; Table S3, EC50/GM of Gram-negative strains, highest tested concentration used where EC50 above it): > 15; Selectivity index (SI) Fungi ([10]; Table S3, EC50/GM of fungi, highest tested concentration used where EC50 above it): > 29; SI (selectivity index = EC50/GM) ([10]; haemolytic EC50 over GM of MIC against all bacterial strains, Table 1): >37
CCCCCCCCCCCC(=O)N[C@H]1CSSC[C@@H](C(=O)N[C@@H](CCCNC(=N)N)C(=O)N[C@@H](CC(C)C)C(N)=O)NC(=O)[C@H](CCCNC(=N)N)NC(=O)[C@H](Cc2c[nH]c3ccccc23)NC(=O)[C@H](Cc2c[nH]c3ccccc23)NC(=O)CNC(=O)[C@H](Cc2c[nH]c3ccccc23)NC(=O)[C@H](CCCNC(=N)N)NC(=O)[C@H](CCCNC(=N)N)NC(=O)CNC1=O [Peptide C12-cTurg-6, C12- (CGRRWGWWRC)RL-NH2] (Lauroyl-CGRRWGWWRCRL-NH2; disulfide 1-10) | 8 | 10 | 8 | 81 | 32 | 32 | 64 | 128 | 8 | 1 | 9 | 16 (≈ 8.82 µM) | 16 (≈ 8.82 µM) | 64 | 16 | 14 | 14 | 32 | Selectivity index (SI) Tot. bact. ([10]; Table S3, EC50/GM of all bacterial strains, highest tested concentration used where EC50 above it): 1
